Measured values published in patent US8178525B2 (priority 2008, dated 2012).
Structures can show the parent of a compound that is named as a salt. Where two headings read alike, the source gives them in different places. Marks after values point to notes of the source that are not given here.

Legend:
[1] = target: T1, human FXa (Homo sapiens, UniProt P00742); assay: Inhibitory activity against purified human FXa, chromogenic substrate S-2765; format: biochemical
T1 construct: purchased Enzyme Research Laboratories
T1 sequence (P00742 235-488 limits assumed): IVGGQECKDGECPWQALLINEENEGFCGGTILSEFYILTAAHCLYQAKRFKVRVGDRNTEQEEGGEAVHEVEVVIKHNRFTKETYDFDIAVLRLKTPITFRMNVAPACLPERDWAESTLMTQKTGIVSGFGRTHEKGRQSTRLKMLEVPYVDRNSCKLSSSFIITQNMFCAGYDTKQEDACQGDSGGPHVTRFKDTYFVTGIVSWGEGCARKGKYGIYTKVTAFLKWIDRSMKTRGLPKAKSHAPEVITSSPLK
T1 sequence (P00742 41-179 partner limits assumed): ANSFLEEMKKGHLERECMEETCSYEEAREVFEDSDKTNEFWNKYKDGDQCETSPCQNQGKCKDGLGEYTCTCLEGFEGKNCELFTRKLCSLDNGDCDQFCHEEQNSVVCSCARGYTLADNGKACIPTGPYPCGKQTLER
Procedure: Human FXa was purchased from Enzyme Research Laboratories. 96-well microplate was purchased from Corning Life Sciences.
Inhibitory activity of the oxazolidinone derivatives with cyclic amidoxime or cyclic amidrazone group represented by formula I of the present invention against FXa was measured as follow.
The reaction was initiated by the addition of the substrate, and the absorbance was monitored continuously at 405 nm for 5 min using SpectraMax 190 (Molecular Devices, USA). The inhibitory constant (Ki) against human FXa was calculated according to the Cheng-Prusoff equation (Ki=IC50/1+[S]/Km), where [S] is the substrate concentration, and Km is the MichalisMenten constant. Km was determined from a Lineweaver-Burk plot. […] IC50 values were calculated using GraFit software version 5.0.12 (Erithacus Software Ltd., UK).

[2] = test system: Citrated human and rat plasma; assay: Prothrombin time (PT), method using coagulometer; format: biochemical; details: concentration required to double the plasma clotting times, plasma species not given
Procedure: (§1) Effect of the oxazolidinone derivatives with cyclic amidoxime or cyclic amidrazone group represented by formula I of the present invention on blood coagulation was investigated by measuring prothrombin time (PT).
a) Method using coagulometer: Prothrombin time (PT) was measured with a Thrombotimer 4-channel coagulometer (Behnk Elektronik, Germany). Citrated human and rat plasma were used in the assays. For the PT measurement, 100 uL of freshly thawed plasma was mixed with 3 uL of serial dilution of test compound or DMSO. After 5 min incubation at 37° C., 200 uL of STA-Neoplastine (Diagnostica Stago, France) was added to start clot formation. Anticoagulant activity of the compounds was defined as the concentration required to double the plasma clotting times [2×PT (uM)]. Human plasma was obtained from Daejeon Red Cross Blood Center. […] Blood was collected into plastic tubes containing 1/10 volume of 3.8% sodium citrate. Plasma was obtained by immediate centrifugation at 2500 g for 10 min at 4° C., and stored at −70° C.

[3] = test system: thrombus formation in rat AV-shunt; assay: Antithrombotic effect in arteriovenous shunt (AV-shunt) model in rats; format: in vivo; details: oral 60 min before shunt, dose not given
Procedure: Antithrombotic effect of the oxazolidinone derivatives with cyclic amidoxime or cyclic amidrazone group represented by formula I of the present invention was evaluated using arteriovenous (AV) shunt in rats. Fasted, male Sprague-Dawley rats, weighed 200-240 g and aged approximately 7 weeks, were anesthetized by intraperitoneal injection of urethane (1.25 g/kg) or chloral hydrate. An arteriovenous (AV) shunt in anesthetized rats was performed as described previously, with minor modification [Journal of Thrombosis and Haemostasis (2004) 3, 514]. The left common carotid artery and the right jugular vein were cannulated with two 200-mm-long, saline filled tubes (PE-50, Becton Dickinson, USA). The polyethylene tubes were connected through 8-mm-long silicone tubing (L/S® 13, MasterFlex, USA) with a 50-mm-long silicone tube (L/S® 16, MasterFlex, USA) containing a […]. The compound or vehicle was given orally 60 min before shunt was opened for 15 min. The cotton thread was then withdrawn and weighed. ED50 values were calculated by linear regression analysis using Excel 2003 (Microsoft®.

[4] = test system: citrated plasma; assay: Prothrombin time (PT), method using spectramax; format: biochemical, human and rat; details: concentration required to double the plasma clotting times, absorbance 340 nm, plasma species not given
Procedure: as §1
b) Method using spectramax: The compound solution of serial dilution (5 uL) according to the present invention was mixed with citrated plasma (45 uL) followed by addition of STA-Neoplastine (Diagnostica Stago, France) after 5 min at 37° C. Absorbance at 340 nm was continuously monitored and the PT was determined as time (in seconds) when the absorbance at 340 nm reached 0.1. Anticoagulant activity of the compounds was defined as the concentration required to double the plasma clotting times [2×PT (uM)]. Human plasma was obtained from Daejeon Red Cross Blood Center. […] Blood was collected into plastic tubes containing 1/10 volume of 3.8% sodium citrate. Plasma was obtained by immediate centrifugation at 2500 g for 10 min at 4° C., and stored at −70° C.

[5] = physchem; format: physicochemical
From the text: Rivaroxaban represented by formula A was used as the comparison drug.

[6] = test system: rat tail bleeding time; assay: Bleeding time (BT) in rat tail bleeding model; format: in vivo; details: for Prolongation of bleeding time (X-fold): rat tail, po
Procedure: Fasted, male Sprague-Dawley rats, weighed 200-240 g and aged approximately 7 weeks, were anesthetized by intraperitoneal injection of pentobarbital-Na (60 mg/kg). The FXa inhibitors or vehicle was given orally 60 min before the tails of anesthetized rats were transected 2 mm from the tip and vertically immersed in saline at 37° C. The time until continuous blood flow ceased for >30 s was measured, with a maximum observation time of 30 min (longer bleeding time were assigned a value of 30 min).

[7] = purified human FXa 2.6 nM, S-2765 300 uM, pH 7.8, 37° C., Cheng-Prusoff, Km 125 μM, read-out: Ki (nM), inhibition constant against human FXa
[8] = asterisked values (chloral hydrate anesthetic)
[9] = values without asterisk (urethane anesthetic)

Compound | Ki [1, 7] [nM] | 2xPT (uM) Coagulometer [2] [µM] | Inhibition of thrombus formation (%) [3, 8] | 2xPT (uM) Spectramax [4] [µM] | Inhibition of thrombus formation (%) [3, 9] [%] | Ki [1] [nM] | other results
CCC1=NN(c2ccc(N3C[C@H](CNC(=O)c4ccc(Cl)s4)OC3=O)cc2)CCN1 [Compound 111] | 18.9 | 0.40 | 17* % | – | – | – | –
CCN1OCCN=C1c1ccc(N2C[C@H](CNC(=O)c3ccc(Cl)s3)OC2=O)cc1 [Compound 105] | 3.62 | 0.16 | – | 0.04 | 80 | – | –
CN1CCON=C1c1ccc(N2C[C@H](CNC(=O)c3ccc(Cl)s3)OC2=O)cc1 [100 (HCl salt)] | – | – | – | – | – | – | solubility ([5]; water, read-out: Aqueous Solubility): 12 mM; Prolongation of bleeding time (X-fold) ([6]; dose 5 mg/kg): 1.2 X-fold; Prolongation of bleeding time (X-fold) ([6]; dose 10 mg/kg): 0.9 X-fold
CC1=NN(c2ccc(N3C[C@H](CNC(=O)c4ccc(Cl)s4)OC3=O)cc2)CCN1C [Compound 113] | 29.3 | 0.62 | 12* % | – | – | – | –
O=C(NC[C@H]1CN(c2ccc(N3CCNC=N3)cc2)C(=O)O1)c1ccc(Cl)s1 [Compound 109] | – | 0.44 | 73% | 0.21 | 78 | 4.37 | Prolongation of bleeding time (X-fold) ([6]; dose 2.5 mg/kg): 2.5 X-fold; Prolongation of bleeding time (X-fold) ([6]; dose 5 mg/kg): 4.0 X-fold; Prolongation of bleeding time (X-fold) ([6]; dose 10 mg/kg): 4.1 X-fold
CN1OCCN=C1c1ccc(N2C[C@H](CNC(=O)c3ccc(Cl)s3)OC2=O)cc1 [Compound 104] | 10 | – | – | 0.05 | 21 | – | –
O=C(NC[C@H]1CN(c2ccc(C3=NCCN4C(=O)CCN34)cc2)C(=O)O1)c1ccc(Cl)s1 [Compound 108] | – | 1.00 | – | 0.35 | 52 | 15.8 | –
CN1CCON=C1c1ccc(N2C[C@H](CNC(=O)c3ccc(Cl)s3)OC2=O)cc1 [100 (MSA salt)] | – | – | – | – | – | – | Aqueous Solubility [5]: >20 mM; Prolongation of bleeding time (X-fold) ([6]; dose 5 mg/kg): 1.1 X-fold; Prolongation of bleeding time (X-fold) ([6]; dose 10 mg/kg): 1.8 X-fold; Prolongation of bleeding time (X-fold) ([6]; dose 20 mg/kg): 5.1 X-fold
CN1CCON=C1c1ccc(N2C[C@H](CNC(=O)c3ccc(Cl)s3)OC2=O)cc1 [Compound 100] | – | 0.69 ± 0.07 | 58% | 0.25 | 65 | 7.11 | prolongation of bleeding time compared to the vehicle control ([6]; rat tail bleeding model, 10 mg/kg): did not prolonged bleeding time; Prolongation of bleeding time (X-fold) ([6]; dose 5 mg/kg): 0.9 X-fold
CN1C=NCCN1c1ccc(N2C[C@H](CNC(=O)c3ccc(Cl)s3)OC2=O)cc1 [Compound 114] | 2.86 | 0.50 | 5* % | – | – | – | –
O=C(NC[C@H]1CN(c2ccc(N3C=NOCC3)cc2)C(=O)O1)c1ccc(Cl)s1 [Compound 115] | 84 | – | – | 1.49 | 29 | – | –
CC1=NOCCN1c1ccc(N2C[C@H](CNC(=O)c3ccc(Cl)s3)OC2=O)cc1 [Compound 116] | 23.2 | 3.51 | – | 0.71 | 74 | – | –
O=C(NC[C@H]1CN(c2ccc(N3CCNC=N3)cc2)C(=O)O1)c1ccc(Cl)s1 [Compound 109-HCl] | – | – | – | – | – | – | Aqueous Solubility [5]: 6 mM
CCN1CCN(C)N=C1c1ccc(N2C[C@H](CNC(=O)c3ccc(Cl)s3)OC2=O)cc1 [Compound 106] | – | – | – | 0.33 | – | > 30 | –
O=C(NC[C@H]1CN(c2ccc(N3CCON=C3C3CC3)cc2)C(=O)O1)c1ccc(Cl)s1 [Compound 117] | 101 | – | – | 2.2 | – | – | –
O=C(NC[C@H]1CN(c2ccc(N3CCNC=N3)cc2)C(=O)O1)c1ccc(Cl)s1 [109 (MSA salt)] | – | – | – | – | – | – | Aqueous Solubility [5]: >20 mM; Prolongation of bleeding time (X-fold) ([6]; dose 2.5 mg/kg): 2.1 X-fold; Prolongation of bleeding time (X-fold) ([6]; dose 5 mg/kg): 3.8 X-fold; Prolongation of bleeding time (X-fold) ([6]; dose 10 mg/kg): 5.7 X-fold
O=C(NC[C@H]1CN(c2ccc(C3=NOCCN3)cc2)C(=O)O1)c1ccc(Cl)s1 [Compound 101] | – | – | – | 1.39 | 45 | 110 | –
O=CN1CCN(c2ccc(N3C[C@H](CNC(=O)c4ccc(Cl)s4)OC3=O)cc2)C=N1 [Compound 118] | 132 | 9.38 | – | 4.88 | 74 | – | –
CN1C=NN(c2ccc(N3C[C@H](CNC(=O)c4ccc(Cl)s4)OC3=O)cc2)CC1 [Compound 112] | 120 | 4.26 | 44* % | – | – | – | –
CCN1CCON=C1c1ccc(N2C[C@H](CNC(=O)c3ccc(Cl)s3)OC2=O)cc1 [Compound 102] | – | 1.76 | – | 0.77 | 61 | 8.91 | –
CC1=NN(c2ccc(N3C[C@H](CNC(=O)c4ccc(Cl)s4)OC3=O)cc2)CCN1 [Compound 110] | 2.07 | 0.31 | 45* % | – | – | – | –
CC1=NN(C)CCN1c1ccc(N2C[C@H](CNC(=O)c3ccc(Cl)s3)OC2=O)cc1 [Compound 121] | 95.6 | 2.90 | – | 0.54 | 51 | – | –
O=C(NC[C@H]1CN(c2ccc(C3=NOCCN3C3CC3)cc2)C(=O)O1)c1ccc(Cl)s1 [Compound 103] | – | – | – | 1.10 | 24 | 53.3 | –
